This note sets out measurements from US7608411B2, “Prostaglandin receptor EP1” (Ono Pharmaceutical Co., Ltd., priority 2001, dated 2009).

The target in test [1] is T1, human EP1 receptor described in Japanese Patent No. 3,090,472 (Homo sapiens, UniProt P34995, A71T/L230H).
T1 construct: expressed in transfected cells; host or cells: cells expressing the receptor of JP 3,090,472
T1 sequence (P34995 1-402 A71T/L230H): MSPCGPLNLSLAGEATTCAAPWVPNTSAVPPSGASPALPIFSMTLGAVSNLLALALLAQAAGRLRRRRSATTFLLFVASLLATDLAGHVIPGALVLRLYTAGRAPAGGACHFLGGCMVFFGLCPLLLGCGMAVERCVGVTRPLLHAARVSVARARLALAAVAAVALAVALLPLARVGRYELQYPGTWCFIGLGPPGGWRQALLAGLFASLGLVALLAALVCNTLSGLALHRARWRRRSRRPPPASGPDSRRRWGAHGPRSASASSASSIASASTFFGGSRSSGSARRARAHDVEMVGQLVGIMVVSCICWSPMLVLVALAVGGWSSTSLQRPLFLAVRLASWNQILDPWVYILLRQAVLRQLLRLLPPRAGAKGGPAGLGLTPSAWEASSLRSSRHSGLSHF
The test can be described thus: Measurement of intracellular Ca2+ concentration in cells expressing human EP1 receptor described in Japanese Patent No. 3,090,472. Type of test: cell-based. The note with it: cells expressing human EP1 receptor of Japanese Patent No. 3,090,472 (reference); Fura2-AM fluorescence. On the procedure:
(§1) The cells were cultured in 500 cm^2 treys to reach confluence, washed with PBS(−), and peeled off by pipeting with PBS(−) on ice. After centrifugation at 800 rpm for 3 minutes, the cell pellet was suspended in medium A (15 ml) and incubated at 37° C. for 50 minutes followed by at room temperature for 10 minutes. After re-centrifugation the pellet was suspended in medium B (1-2×10^6/ml) and used for experiments. In the case that cell suspension contains Fura2-AM (Dojin), the operations were shielded the light by aluminum foil. Stirring the cell suspensions (400 μl) at 600 rpm, the changes of intracellular Ca^2+ concentration were measured by monitoring the changes of fluorescence intensity at both 340 nm and 380 nm and the ratio thereof, using CAM-220 Spectrofluorometer (Nihon Bunko Kogyo).
(§2) Medium A: • α-MEM containing fura2-AM (5 μM)), indomethacin (10 μM), HEPES-NaOH (pH7.4, 10 mM) and 10% FCS,
(§3) Medium B: • α-MEM containing indomethacin (1 μM), HEPES-NaOH (pH7.4, 10 mM) and 0.1% BSA.
(§4) The changes in intracellular Ca^2+ concentration using the cells expressing human EP1 receptor of the present invention and the cells expressing human EP1 receptor described in Japanese Patent No. 3,090,472 were shown in FIG. 3. In FIG. 3, “reference” means the result obtained by using the cells expressing human EP1 receptor described in Japanese Patent No. 3,090,472.

Test [2] deals with T2, human EP1 receptor of the present invention (Homo sapiens, UniProt P34995).
T2 construct: The cDNA insert was cut off from pT7BluehEP1 by EcoR1 digestion, and inserted into EcoR1 site of expression vector pdKCR-dhfr; expressed in transfected cells; A1 used their membrane fraction, A3 used whole cells
T2 sequence (P34995 1-402): T1 sequence (P34995 1-402 A71T/L230H) with T71A, H230L
Put plainly: Measurement of intracellular Ca2+ concentration in cells expressing human EP1 receptor of the present invention. The format is cell-based. As to conditions: Fura2-AM fluorescence. On the procedure: as §1, §2, §3, §4

For test [3], the target named is T2, human EP1 receptor of the present invention. The test can be described thus: Binding assay of [3H]-PGE2 with membrane fraction of CHO cells expressing human EP1 receptor of the present invention. As to conditions: nonspecific binding with 10 μM PGE2. How it is done:
1) Gene Transfection into CHO Cells and Isolation of Clones Expressing Human EP1 Receptor
The cDNA insert was cut off from pT7BluehEP1 by EcoR1 digestion, and inserted into EcoR1 site of expression vector pdKCR-dhfr in the proper orientation. Approximately 25-50 ug of expression plasmid was digested completely with proper restriction enzymes (SalI, SacII etc.), purified by Phenol/CIAA extraction, CIAA extraction and ethanol precipitation, and dissolved in 50 μl of sterilized water. CHO-dhfr(−) cells used as host were suspended in 1.0-1.5×10^6 cells/0.8 ml of PBSuc buffer (sucrose 272 mM, K^+PO4^2− buffer (7 mM, pH7.4) and MgCl2 (1 mM)). […]
Reaction mixtures (200 μl) containing the membrane fraction, which was prepared by the above method and contains human EP1 receptor, and various concentrations of [3H]-PGE2 were incubated at room temperature for a certain time, separated by rapid filtration using Cell Harvester (Brandel). […] Residual [3H]-PGE2 bound to the filter (total binding) was quantitated by liquid scintillation counter. Nonspecific binding was quantitated in a similar manner in the presence of 10 μM of PGE2. […]
The specific binding thus obtained was analyzed by Scatchard plots, an equilibrium dissociation constant (Kd; nM) and a maximum number of specific binding sites (Bmax; fmol/mg protein) were determined. […]

Test [4] deals with T1, human EP1 receptor described in Japanese Patent No. 3,090,472. The test can be described thus: Binding assay of [3H]-PGE2 with cells expressing human EP1 receptor described in Japanese Patent No. 3,090,472. The note with it: cells expressing human EP1 receptor of Japanese Patent No. 3,090,472 (reference). How it is done:
Reaction mixtures (200 μl) containing the membrane fraction, which was prepared by the above method and contains human EP1 receptor, and various concentrations of [3H]-PGE2 were incubated at room temperature for a certain time, separated by rapid filtration using Cell Harvester (Brandel). The membrane fraction was recovered on glass filter and washed several times with the buffer cooled on ice (1-2 ml/wash). Residual [3H]-PGE2 bound to the filter (total binding) was quantitated by liquid scintillation counter. Nonspecific binding was quantitated in a similar manner in the presence of 10 μM of PGE2. Specific binding was defined as the difference between total binding and nonspecific binding.
The specific binding thus obtained was analyzed by Scatchard plots, an equilibrium dissociation constant (Kd; nM) and a maximum number of specific binding sites (Bmax; fmol/mg protein) were determined. The result obtained using the cells expressing human EP1 of the present invention was shown in FIG. 1, and the result obtained using the cells expressing human EP1 described in Japanese Patent No. 3,090,472 in FIG. 2, respectively.

Structures are written as SMILES. Numbering of substitutions follows the chain as printed.

Consider `CCCCC[C@H](O)/C=C/[C@H]1[C@H](O)CC(=O)[C@@H]1C/C=C\CCCC(=O)O` [PGE2, prostaglandin E2], for which the “PGE2 dependent elevation of intracellular Ca2+ concentration” value in test [1] was “not detected at all”; in test [2], “detected”.
Take `CCCCC[C@H](O)/C=C/[C@H]1[C@H](O)CC(=O)[C@@H]1C/C=C\CCCC(=O)O` [[^3H]-PGE2]: the “specific binding of [3H]-PGE2 to the receptor” value in test [3] is on record as “extremely high specific binding”; in test [4] it was “detected”.
